Results as given in ChEMBL document CHEMBL1909046, “DrugMatrix in vitro pharmacology data”.

Experiments:
[1] = target: T1, Nitric oxide synthase, inducible (Mus musculus, UniProt P29477); design: species or system Escherichia coli;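 note: inhibition of iNOS enzyme activity measured with L-arginine as substrate; in other assays of this panel Not Active means under 50% inhibition at 10 µM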
T1 sequence (P29477 whole entry): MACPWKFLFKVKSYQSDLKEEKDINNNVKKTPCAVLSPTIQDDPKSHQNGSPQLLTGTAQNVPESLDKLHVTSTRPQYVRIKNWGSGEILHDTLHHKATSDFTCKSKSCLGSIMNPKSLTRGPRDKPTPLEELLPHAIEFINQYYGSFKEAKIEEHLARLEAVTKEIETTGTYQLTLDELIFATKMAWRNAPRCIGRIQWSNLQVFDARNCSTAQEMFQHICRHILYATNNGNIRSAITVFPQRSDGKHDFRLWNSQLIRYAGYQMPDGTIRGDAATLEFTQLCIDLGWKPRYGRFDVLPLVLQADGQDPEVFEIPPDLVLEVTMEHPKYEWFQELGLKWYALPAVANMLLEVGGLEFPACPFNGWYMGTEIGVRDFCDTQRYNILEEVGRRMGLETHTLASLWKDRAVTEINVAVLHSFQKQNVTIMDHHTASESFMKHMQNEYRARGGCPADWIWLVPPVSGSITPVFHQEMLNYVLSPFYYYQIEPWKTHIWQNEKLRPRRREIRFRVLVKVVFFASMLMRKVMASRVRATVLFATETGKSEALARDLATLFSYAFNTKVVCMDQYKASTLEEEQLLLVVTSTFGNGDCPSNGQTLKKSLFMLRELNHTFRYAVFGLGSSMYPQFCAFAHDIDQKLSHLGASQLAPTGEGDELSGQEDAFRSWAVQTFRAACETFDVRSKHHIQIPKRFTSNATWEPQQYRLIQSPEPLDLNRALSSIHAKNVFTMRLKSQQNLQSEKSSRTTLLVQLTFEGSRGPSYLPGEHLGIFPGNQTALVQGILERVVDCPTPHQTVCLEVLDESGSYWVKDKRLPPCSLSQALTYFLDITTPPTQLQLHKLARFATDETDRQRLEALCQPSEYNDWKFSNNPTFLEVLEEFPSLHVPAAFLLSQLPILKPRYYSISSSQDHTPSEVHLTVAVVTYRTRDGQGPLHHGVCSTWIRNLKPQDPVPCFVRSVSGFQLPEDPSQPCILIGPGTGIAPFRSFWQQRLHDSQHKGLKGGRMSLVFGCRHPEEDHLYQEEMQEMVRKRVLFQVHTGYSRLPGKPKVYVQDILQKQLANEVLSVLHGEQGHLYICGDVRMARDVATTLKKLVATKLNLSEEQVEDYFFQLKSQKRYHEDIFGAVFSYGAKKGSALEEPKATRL

[2] = DRUGMATRIX: Sodium/nucleoside co-transporter radioligand binding (ligand: nitrobenzylthioinosine); type: cell membranes, Cavia porcellus, Dunkin-Hartley, Cerebral cortex, Membrane; settings: Not Active = under 50% inhibition at 10 µM
[3] = target: T2, Cysteinyl leukotriene receptor 1 (Homo sapiens, UniProt Q9Y271); type: cell membranes, Membrane; settings: cho-k1; note: in other assays of this panel Not Active means under 50% inhibition at 10 µM
T2 sequence (Q9Y271 whole entry): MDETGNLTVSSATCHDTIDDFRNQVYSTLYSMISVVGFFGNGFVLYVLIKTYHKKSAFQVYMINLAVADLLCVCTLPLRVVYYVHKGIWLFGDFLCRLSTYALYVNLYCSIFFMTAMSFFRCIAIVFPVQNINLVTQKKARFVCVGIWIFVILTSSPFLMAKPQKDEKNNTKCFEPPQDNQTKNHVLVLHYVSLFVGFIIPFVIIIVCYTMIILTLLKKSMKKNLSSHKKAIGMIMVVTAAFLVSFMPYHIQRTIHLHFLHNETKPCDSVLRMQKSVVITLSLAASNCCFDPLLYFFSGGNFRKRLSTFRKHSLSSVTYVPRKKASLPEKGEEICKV

[4] = target: T3, Alpha-1B adrenergic receptor (Rattus norvegicus, UniProt P15823); assay: DRUGMATRIX: Alpha-1B adrenergic receptor radioligand binding (ligand: prazosin); type: cell membranes, Wistar, Liver, Membrane; settings: Not Active = under 50% inhibition at 10 µM
T3 sequence (P15823 whole entry): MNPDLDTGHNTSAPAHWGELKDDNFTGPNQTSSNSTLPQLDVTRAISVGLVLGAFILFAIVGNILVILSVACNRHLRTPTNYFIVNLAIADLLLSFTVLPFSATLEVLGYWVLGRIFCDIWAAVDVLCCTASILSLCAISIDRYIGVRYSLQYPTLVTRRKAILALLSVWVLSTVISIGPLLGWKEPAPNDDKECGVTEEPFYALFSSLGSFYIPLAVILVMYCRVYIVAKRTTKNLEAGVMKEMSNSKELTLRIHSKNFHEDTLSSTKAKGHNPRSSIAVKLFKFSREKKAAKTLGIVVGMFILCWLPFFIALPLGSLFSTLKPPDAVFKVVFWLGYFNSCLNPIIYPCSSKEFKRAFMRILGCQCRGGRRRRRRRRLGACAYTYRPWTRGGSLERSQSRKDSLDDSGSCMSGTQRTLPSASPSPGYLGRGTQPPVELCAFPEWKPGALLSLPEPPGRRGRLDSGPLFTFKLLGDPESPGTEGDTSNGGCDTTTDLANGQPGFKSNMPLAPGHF

[5] = DRUGMATRIX: Tumor Necrosis Factor (TNF), Non-Selective radioligand binding (ligand: [125I] TNF-alpha); type: cell membranes, Membrane; settings: u-937; Not Active = under 50% inhibition at 10 µM
[6] = target: T4, Neuropeptide Y receptor type 1 (Homo sapiens, UniProt P25929); type: cell membranes, Membrane; settings: sk-n-mc; note: in other assays of this panel Not Active means under 50% inhibition at 10 µM
T4 sequence (P25929 whole entry): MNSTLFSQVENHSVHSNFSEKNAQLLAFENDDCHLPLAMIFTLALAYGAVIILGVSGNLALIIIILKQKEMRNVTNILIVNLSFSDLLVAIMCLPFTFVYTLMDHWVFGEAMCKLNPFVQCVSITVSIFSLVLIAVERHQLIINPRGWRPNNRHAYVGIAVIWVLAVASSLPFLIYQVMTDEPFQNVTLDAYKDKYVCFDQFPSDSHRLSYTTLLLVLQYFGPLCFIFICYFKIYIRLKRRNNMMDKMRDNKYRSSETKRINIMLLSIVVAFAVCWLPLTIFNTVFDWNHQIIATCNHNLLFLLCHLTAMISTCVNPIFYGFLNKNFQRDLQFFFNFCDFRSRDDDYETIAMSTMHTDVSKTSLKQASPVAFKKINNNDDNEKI

[7] = DRUGMATRIX: Atrial Natriuretic Factor (ANF) radioligand binding (ligand: [125I] ANF (rat)); type: cell membranes, Cavia porcellus, Dunkin-Hartley, Adrenal gland, Membrane; settings: Not Active = under 50% inhibition at 10 µM
[8] = target: T5, Leukotriene C4 synthase (Cavia porcellus, UniProt A6XA80); type: tissue-based, Lung;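 note: enzyme inhibition assay of leukotriene C4 synthase, using LTA4 as the substrate; in other assays of this panel Not Active means under 50% inhibition at 10 µM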
T5 sequence (A6XA80 whole entry): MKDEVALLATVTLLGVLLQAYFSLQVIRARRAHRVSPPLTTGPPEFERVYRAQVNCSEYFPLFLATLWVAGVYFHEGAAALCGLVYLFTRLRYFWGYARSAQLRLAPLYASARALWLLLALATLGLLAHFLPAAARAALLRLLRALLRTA

C[n+]1ccccc1/C=N/O.[Cl-] [PRALIDOXIME CHLORIDE]
Not Active: IC50 [1] | IC50 [2] | Ki [2] | IC50 [3] | IC50 [4] | IC50 [5] | Ki [5] | IC50 [6] | IC50 [7] | Ki [7] | IC50 [8]

Cc1c(OCC(F)(F)F)ccnc1C[S+]([O-])c1nc2ccccc2[nH]1 (centres undefined) [LANSOPRAZOLE]
Not Active: IC50 [1] | IC50 [2] | Ki [2] | IC50 [3] | IC50 [4] | IC50 [5] | Ki [5] | IC50 [6] | IC50 [7] | Ki [7] | IC50 [8]

CN1[C@@H]2CC[C@H]1C[C@@H](OC(=O)C(CO)c1ccccc1)C2 (some centres undefined) [ATROPINE]
Not Active: IC50 [1] | IC50 [2] | Ki [2] | IC50 [3] | IC50 [4] | IC50 [5] | Ki [5] | IC50 [6] | IC50 [7] | Ki [7] | IC50 [8]

COc1ccc(C2C(=O)c3ccccc3C2=O)cc1 [ANISINDIONE]
Not Active: IC50 [1] | IC50 [2] | Ki [2] | IC50 [3] | IC50 [4] | IC50 [5] | Ki [5] | IC50 [6] | IC50 [7] | Ki [7] | IC50 [8]

COC(=O)Nc1nc2ccc([S+]([O-])c3ccccc3)cc2[nH]1 (centres undefined) [OXFENDAZOLE]
Not Active: IC50 [1] | IC50 [2] | Ki [2] | IC50 [3] | IC50 [4] | IC50 [5] | Ki [5] | IC50 [6] | IC50 [7] | Ki [7] | IC50 [8]

CC(C(=O)O)c1ccc2oc(-c3ccc(Cl)cc3)nc2c1 (centres undefined) [BENOXAPROFEN]
Not Active: IC50 [1] | IC50 [2] | Ki [2] | IC50 [3] | IC50 [4] | IC50 [5] | Ki [5] | IC50 [6] | IC50 [7] | Ki [7] | IC50 [8]

Cc1cc2c(OCC(CNC(C)(C)C)OC(=O)c3ccccc3)cccc2[nH]1 (centres undefined) [BOPINDOLOL]
Not Active: IC50 [1] | IC50 [2] | Ki [2] | IC50 [3] | IC50 [4] | IC50 [5] | Ki [5] | IC50 [6] | IC50 [7] | Ki [7] | IC50 [8]

Nc1ccn([C@@H]2O[C@H](CO)[C@@H](O)C2(F)F)c(=O)n1 [GEMCITABINE]
Not Active: IC50 [1] | IC50 [2] | Ki [2] | IC50 [3] | IC50 [4] | IC50 [5] | Ki [5] | IC50 [6] | IC50 [7] | Ki [7] | IC50 [8]

COc1ccc2[nH]cc(CCNC(C)=O)c2c1 [MELATONIN]
Not Active: IC50 [1] | IC50 [2] | Ki [2] | IC50 [3] | IC50 [4] | IC50 [5] | Ki [5] | IC50 [6] | IC50 [7] | Ki [7] | IC50 [8]

GADOPENTETATE DIMEGLUMINE
Not Active: IC50 [1] | Ki [1] | IC50 [2] | Ki [2] | IC50 [3] | Ki [3] | IC50 [4] | Ki [4] | IC50 [5] | Ki [5] | IC50 [6] | Ki [6] | IC50 [7] | Ki [7] | IC50 [8] | Ki [8]

C#CC1(O)CC[C@H]2[C@@H]3CCC4=CC(=O)CC[C@@H]4[C@H]3CC[C@@]21CC (some centres undefined) [NORGESTREL]
Not Active: IC50 [1] | IC50 [2] | Ki [2] | IC50 [3] | IC50 [4] | IC50 [5] | Ki [5] | IC50 [6] | IC50 [7] | Ki [7] | IC50 [8]

C[n+]1ccc(-c2cc[n+](C)cc2)cc1.[Cl-].[Cl-] [PARAQUAT DICHLORIDE]
Not Active: IC50 [1] | IC50 [2] | Ki [2] | IC50 [3] | IC50 [4] | IC50 [5] | Ki [5] | IC50 [6] | IC50 [7] | Ki [7] | IC50 [8]

C[C@@H]1CC[C@@]2(OC1)O[C@H]1[C@@H](O)[C@H]3[C@@H]4CC[C@H]5C[C@@H](O[C@@H]6O[C@H](CO)[C@H](O[C@@H]7O[C@H](CO)C(O)[C@H](O[C@@H]8OC[C@@H](O)[C@H](O)[C@H]8O)[C@H]7O[C@@H]7O[C@H](CO)[C@H](O)[C@H](O[C@@H]8O[C@H](CO)[C@@H](O)[C@H](O)[C@H]8O)[C@H]7O)[C@H](O)[C@H]6O)[C@H](O)C[C@]5(C)[C@H]4CC[C@]3(C)[C@H]1[C@@H]2C (some centres undefined) [DIGITONIN]
Not Active: IC50 [1] | IC50 [2] | Ki [2] | IC50 [3] | IC50 [4] | IC50 [5] | Ki [5] | IC50 [6] | IC50 [7] | Ki [7] | IC50 [8]

Oc1c(Cl)cc(Cl)c(Cl)c1Cc1c(O)c(Cl)cc(Cl)c1Cl [HEXACHLOROPHENE]
Not Active: IC50 [1] | IC50 [2] | Ki [2] | IC50 [3] | IC50 [4] | IC50 [5] | Ki [5] | IC50 [6] | IC50 [7] | Ki [7] | IC50 [8]
